Entries after “also recorded” stand apart in the source; their conditions may differ.
Tests used:
[1] = test system: MOLT4 cells; assay: Viability (MTS) assay in MOLT4 cells; type: cell-based, Human; settings: 72 h treatment
Procedure: Human T-ALL MOLT4 (Cat. No. CRL-1582), K562 (Cat. No. CCL-243), NCI-H1299 (Cat. No. CRL-5803), NCI-H2228 (Cat. No. CRL-5935), LNCaP (Cat. No. CRL-1740), 22RV1 (Cat. No. CRL-2505), PC3 (Cat. No. CRL-1435), DU145 (Cat. No. HTB-81), and epithelial kidney HEK 293T (293T, Cat. No. ACS-4500) cell lines were recently purchased from American Type Culture Collection (ATCC, Manassas, VA, USA). MOLT4, K562, NCI—H-1299, NCI-H2228, LNCap, and 22RV 1 cell lines were cultured in RPMI 1640 medium (Cat No. 22400-089, Thermo Fisher Scientific, Waltham, MA, USA) supplemented with 10% (v/v) heat-inactivated fetal bovine serum (FBS, Cat. No. S11150H, Atlanta Biologicals, Flowery Branch, GA, USA), 100 U/mL penicillin and 100 pig/mL streptomycin (Pen-Strep, Cat. No. 15140122, Thermo Fisher Scientific). PC3 cells were cultured in complete F—12K medium (Kaighn's modification of Ham's F-12 medium, Cat. No. 30-2004, ATCC) supplemented with 10% (v/v) heat-inactivated FBS, 100 U/mL penicillin, and 100 μg/mL streptomycin. […]
Viability (MTS) assays in various cancer cells followed the methods described in our previous report (Khan et al., 2019). The data were expressed as average % cell viability and fitted in non-linear regression curves using GraphPad Prism 9 (GraphPad Software, La Jolla, CA, USA).

[2] = biological target: CDK9 (Homo sapiens, UniProt P50750); assay: TMT-based global proteomics in MOLT4 cells; type: cell-based; set-up: endogenous in cells; host or cells: MOLT4
Text: Sample Preparation and LC-MS/MS analysis. Total protein from cell pellets was reduced, alkylated, and purified by chloroform/methanol extraction prior to digestion with sequencing grade modified porcine trypsin (Cat. No. V5111, Promega). Tryptic peptides were labeled using tandem mass tag isobaric labeling reagents (Cat. No. A34808, ThermoFisher) following the manufacturer's instructions and combined into one 11-plex sample group. The labeled peptide multiplex was separated into 46 fractions on a 100×1.0 mm Acquity BEH C18 column (Waters) using an UltiMate 3000 UHPLC system (Thermo) with a 50 min gradient from 99:1 to 60:40 bufferA:B (Buffer A: 0.1% formic acid, 0.5% acetonitrile; Buffer B: 0.1% formic acid, 99.9% acetonitrile. Both buffers adjusted to pH 10 with ammonium hydroxide for offline separation) ratio under basic pH conditions, and then consolidated into 18 super-fractions. […]
Data processing and analysis. Proteins were identified and MS3 reporter ions quantified using MaxQuant (version 2.0.3.0; Max Planck Institute) against the Homo sapiens UniprotKB database (March 2021) with a parent ion tolerance of 3 ppm, a fragment ion tolerance of 0.5 Da, and a reporter ion tolerance of 0.003 Da. Scaffold Q+S (Proteome Software) was used to verify MS/MS based peptide and protein identifications (protein identifications were accepted if they could be established with less than 1.0% false discovery and contained at least 2 identified peptides; protein probabilities were assigned by the Protein Prophet algorithm (Nesvizhskii et al., 2003) and to perform reporter ion-based statistical analysis. Protein TMT MS3 reporter ion intensity values were assessed for quality using ProteiNorm for a systematic evaluation of normalization methods (Graw et al., 2020). Cyclic loess normalization (Ritchie et al., 2015) was utilized since it had the highest intragroup correlation and the lowest variance amongst the samples. […]

Chain of CDK9 (P50750 whole entry): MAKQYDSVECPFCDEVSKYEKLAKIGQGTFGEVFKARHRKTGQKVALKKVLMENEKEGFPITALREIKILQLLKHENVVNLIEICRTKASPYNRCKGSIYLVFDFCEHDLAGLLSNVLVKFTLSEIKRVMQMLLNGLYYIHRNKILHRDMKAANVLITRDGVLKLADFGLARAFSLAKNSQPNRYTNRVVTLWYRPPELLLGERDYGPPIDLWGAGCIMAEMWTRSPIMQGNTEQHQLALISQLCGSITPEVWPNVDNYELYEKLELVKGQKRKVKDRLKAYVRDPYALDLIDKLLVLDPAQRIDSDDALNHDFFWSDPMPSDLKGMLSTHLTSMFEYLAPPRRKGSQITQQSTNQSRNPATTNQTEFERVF

## COc1cc(/C=C/C(=O)N2CCC=CC2=O)cc(OC)c1OCCN1CCN(C(=O)CN2CCC(C(=O)Nc3ncc(SCc4ncc(C(C)(C)C)o4)s3)CC2)CC1 [compound 955, (E)-N-(5-(((5-(tert-butyl)oxazol-2-yl)methyl)thio)thiazol-2-yl)-1-(2-(4-(2-(2,6-dimethoxy-4-(3-oxo-3-(6-oxo-3,6-dihydropyridin-1(2H)-yl)prop-1-en-1-yl)phenoxy)ethyl)piperazin-1-yl)-2-oxoethyl)piperidine-4-carboxamide]
[1]
  potency to kill MOLT4 cells compared with SNS-032: more potent to kill MOLT4 cells compared with SNS-032
[2]; 0.1 μM 955, 1 hour
  proteins degraded or downregulated after short treatment (global proteome): only degraded CDK9 and CDK10 and downregulated one downstream protein FYTTD1
[2]; 0.1 μM 955 for 1 h and 6 h, 1 μM SNS-032 for 6 h
  CDK9 protein level (global proteome): reduced the protein level of CDK9; also recorded: significant reduction of CDK9
